Results published in ChEMBL document CHEMBL3045532, “Synthesis and evaluation of novel prodrugs of naproxen” (Med Chem Res, 2011).
One block for each molecule: values may come before it.

How the values were obtained:
Mus musculus [1] = test: Analgesic activity in Mus musculus (mouse) assessed as inhibition of acetic acid-induced writhing at 66.4 mg/kg, po pretreated 1 hr before acetic acid challenge; type: functional
[2] = Prodrug conversion in acetate buffer assessed as half-life for hydrolysis at pH 5; type: physicochemical
[3] = Prodrug conversion in acetate buffer assessed as half-life for hydrolysis at pH 3; type: physicochemical
[4] = Prodrug conversion in phosphate buffer assessed as half-life for hydrolysis at pH 7.4; type: physicochemical
Rattus norvegicus [5] = test: Gastrointestinal toxicity in Rattus norvegicus Wistar (rat) assessed as ulcer at 66.4 mg/kg, po; type: organism-based; set-up: dose 66.4 mg/kg, route oral; conditions: in vivo
[6] = Prodrug conversion in acetate buffer assessed as half-life for hydrolysis at pH 4; type: physicochemical
Rattus norvegicus [7] = test: Anti-inflammatory activity in Rattus norvegicus Wistar (rat) assessed as inhibition of carrageenan-induced edema volume at 66.4 mg/kg, po measured after 60 min; type: functional; conditions: 1 h
Rattus norvegicus [8] = test: Anti-inflammatory activity in Rattus norvegicus Wistar (rat) assessed as inhibition of carrageenan-induced edema volume at 66.4 mg/kg, po measured after 90 min; type: functional; conditions: 1.5 h
Rattus norvegicus [9] = test: Anti-inflammatory activity in Rattus norvegicus Wistar (rat) assessed as inhibition of carrageenan-induced edema volume at 66.4 mg/kg, po measured after 120 min; type: functional; conditions: 2 h
Rattus norvegicus [10] = test: Anti-inflammatory activity in Rattus norvegicus Wistar (rat) assessed as inhibition of carrageenan-induced edema volume at 66.4 mg/kg, po measured after 30 min; type: functional; conditions: 0.5 h
Rattus norvegicus [11] = test: Anti-inflammatory activity in Rattus norvegicus Wistar (rat) assessed as inhibition of carrageenan-induced edema volume at 67.4 mg/kg, po measured after 30 min; type: functional; conditions: 0.5 h
Mus musculus [12] = test: Analgesic activity in Mus musculus (mouse) assessed as inhibition of acetic acid-induced writhing at 67.4 mg/kg, po pretreated 1 hr before acetic acid challenge; type: functional
Rattus norvegicus [13] = test: Anti-inflammatory activity in Rattus norvegicus Wistar (rat) assessed as inhibition of carrageenan-induced edema volume at 67.4 mg/kg, po measured after 60 min; type: functional; conditions: 1 h
Rattus norvegicus [14] = test: Anti-inflammatory activity in Rattus norvegicus Wistar (rat) assessed as inhibition of carrageenan-induced edema volume at 67.4 mg/kg, po measured after 120 min; type: functional; conditions: 2 h
Rattus norvegicus [15] = test: Anti-inflammatory activity in Rattus norvegicus Wistar (rat) assessed as inhibition of carrageenan-induced edema volume at 67.4 mg/kg, po measured after 90 min; type: functional; conditions: 1.5 h
Rattus norvegicus [16] = test: Gastrointestinal toxicity in Rattus norvegicus Wistar (rat) assessed as ulcer at 69.4 mg/kg, po; type: organism-based; set-up: dose 69.4 mg/kg, route oral; conditions: in vivo
Mus musculus [17] = test: Analgesic activity in Mus musculus (mouse) assessed as inhibition of acetic acid-induced writhing at 66.2 mg/kg, po pretreated 1 hr before acetic acid challenge; type: functional
Rattus norvegicus [18] = test: Anti-inflammatory activity in Rattus norvegicus Wistar (rat) assessed as inhibition of carrageenan-induced edema volume at 66.2 mg/kg, po measured after 30 min; type: functional; conditions: 0.5 h
Rattus norvegicus [19] = test: Anti-inflammatory activity in Rattus norvegicus Wistar (rat) assessed as inhibition of carrageenan-induced edema volume at 66.2 mg/kg, po measured after 60 min; type: functional; conditions: 1 h
Rattus norvegicus [20] = test: Anti-inflammatory activity in Rattus norvegicus Wistar (rat) assessed as inhibition of carrageenan-induced edema volume at 66.2 mg/kg, po measured after 120 min; type: functional; conditions: 2 h
Rattus norvegicus [21] = test: Anti-inflammatory activity in Rattus norvegicus Wistar (rat) assessed as inhibition of carrageenan-induced edema volume at 66.2 mg/kg, po measured after 90 min; type: functional; conditions: 1.5 h
Mus musculus [22] = test: Analgesic activity in Mus musculus (mouse) assessed as inhibition of acetic acid-induced writhing at 67.8 mg/kg, po pretreated 1 hr before acetic acid challenge; type: functional
Rattus norvegicus [23] = test: Anti-inflammatory activity in Rattus norvegicus Wistar (rat) assessed as inhibition of carrageenan-induced edema volume at 67.8 mg/kg, po measured after 120 min; type: functional; conditions: 2 h
Rattus norvegicus [24] = test: Anti-inflammatory activity in Rattus norvegicus Wistar (rat) assessed as inhibition of carrageenan-induced edema volume at 67.8 mg/kg, po measured after 30 min; type: functional; conditions: 0.5 h
Rattus norvegicus [25] = test: Anti-inflammatory activity in Rattus norvegicus Wistar (rat) assessed as inhibition of carrageenan-induced edema volume at 67.8 mg/kg, po measured after 90 min; type: functional; conditions: 1.5 h
Rattus norvegicus [26] = test: Anti-inflammatory activity in Rattus norvegicus Wistar (rat) assessed as inhibition of carrageenan-induced edema volume at 67.8 mg/kg, po measured after 60 min; type: functional; conditions: 1 h
Rattus norvegicus [27] = test: Anti-inflammatory activity in Rattus norvegicus Wistar (rat) assessed as inhibition of carrageenan-induced edema volume at 69.4 mg/kg, po measured after 120 min; type: functional; conditions: 2 h
Rattus norvegicus [28] = test: Anti-inflammatory activity in Rattus norvegicus Wistar (rat) assessed as inhibition of carrageenan-induced edema volume at 69.4 mg/kg, po measured after 60 min; type: functional; conditions: 1 h
Rattus norvegicus [29] = test: Anti-inflammatory activity in Rattus norvegicus Wistar (rat) assessed as inhibition of carrageenan-induced edema volume at 69.4 mg/kg, po measured after 90 min; type: functional; conditions: 1.5 h
Mus musculus [30] = test: Analgesic activity in Mus musculus (mouse) assessed as inhibition of acetic acid-induced writhing at 69.4 mg/kg, po pretreated 1 hr before acetic acid challenge; type: functional
Rattus norvegicus [31] = test: Anti-inflammatory activity in Rattus norvegicus Wistar (rat) assessed as inhibition of carrageenan-induced edema volume at 69.4 mg/kg, po measured after 30 min; type: functional; conditions: 0.5 h

t1/2 [2]: 77 h | t1/2 [3]: 44 h | t1/2 [4]: 30 h | t1/2 [6]: 15 h
SMILES: COc1ccc2cc(C(C)C(=O)OCC(OC(C)=O)C(OC(C)=O)C(OC(C)=O)C(/C=N/[C@@H](CS)C(=O)O)OC(C)=O)ccc2c1 (stereo not given in full)
inhibition in vivo at 66.4 mg/kg (Mus musculus [1]): 30.4% | Activity (Rattus norvegicus [5]): Non-toxic | inhibition in vivo at 66.4 mg/kg (Rattus norvegicus [7]): 30% | inhibition in vivo at 66.4 mg/kg (Rattus norvegicus [8]): 57% | inhibition in vivo at 66.4 mg/kg (Rattus norvegicus [9]): 67% | inhibition in vivo at 66.4 mg/kg (Rattus norvegicus [10]): 42%

SMILES: COc1ccc2cc(C(C)C(=O)OCC(OC(C)=O)C(OC(C)=O)C(OC(C)=O)C(/C=N/[C@@H](CC(C)C)C(=O)O)OC(C)=O)ccc2c1 (stereo not given in full)
inhibition in vivo at 67.4 mg/kg (Rattus norvegicus [11]): 46% | inhibition in vivo at 67.4 mg/kg (Mus musculus [12]): 70.5% | inhibition in vivo at 67.4 mg/kg (Rattus norvegicus [13]): 30% | inhibition in vivo at 67.4 mg/kg (Rattus norvegicus [14]): 64% | inhibition in vivo at 67.4 mg/kg (Rattus norvegicus [15]): 32% | Activity (Rattus norvegicus [16]): Non-toxic

SMILES: COc1ccc2cc(C(C)C(=O)OCC(OC(C)=O)C(OC(C)=O)C(OC(C)=O)C(/C=N/[C@H](C(=O)O)[C@@H](C)O)OC(C)=O)ccc2c1 (stereo not given in full)
inhibition in vivo at 66.2 mg/kg (Mus musculus [17]): 60.4% | inhibition in vivo at 66.2 mg/kg (Rattus norvegicus [18]): 18% | inhibition in vivo at 66.2 mg/kg (Rattus norvegicus [19]): 24% | inhibition in vivo at 66.2 mg/kg (Rattus norvegicus [20]): 58% | inhibition in vivo at 66.2 mg/kg (Rattus norvegicus [21]): 39%

SMILES: COc1ccc2cc(C(C)C(=O)OCC(OC(C)=O)C(OC(C)=O)C(OC(C)=O)C(/C=N/[C@@H](Cc3ccccc3)C(=O)O)OC(C)=O)ccc2c1 (stereo not given in full)
inhibition in vivo at 67.8 mg/kg (Mus musculus [22]): 91.2% | inhibition in vivo at 67.8 mg/kg (Rattus norvegicus [23]): 69% | inhibition in vivo at 67.8 mg/kg (Rattus norvegicus [24]): 22% | inhibition in vivo at 67.8 mg/kg (Rattus norvegicus [25]): 47% | inhibition in vivo at 67.8 mg/kg (Rattus norvegicus [26]): 13%

t1/2 [2]: 50 h | t1/2 [3]: 22 h | t1/2 [4]: 18 h | t1/2 [6]: 67 h
SMILES: COc1ccc2cc(C(C)C(=O)OCC(OC(C)=O)C(OC(C)=O)C(OC(C)=O)C(/C=N/[C@@H](Cc3ccc(O)cc3)C(=O)O)OC(C)=O)ccc2c1 (stereo not given in full)
inhibition in vivo at 69.4 mg/kg (Rattus norvegicus [27]): 67% | inhibition in vivo at 69.4 mg/kg (Rattus norvegicus [28]): 25% | inhibition in vivo at 69.4 mg/kg (Rattus norvegicus [29]): 47% | inhibition in vivo at 69.4 mg/kg (Mus musculus [30]): 82% | inhibition in vivo at 69.4 mg/kg (Rattus norvegicus [31]): 60%
